According to patent US12180192B2, “Modulators of THR-β and methods of use thereof” (ALIGOS THERAPEUTICS, INC., priority 2019, dated 2024):

Key:
[1] = target: T1, THR beta (Homo sapiens, UniProt P10828); assay: HEK293T THR beta/RXR luciferase reporter assay (Assay 2); assay type: cell-based; conditions: for Emax: HEK-293T, Table 5, Assay 2, THRβ, read-out: Activity category Assay 2 THRβ (Emax); for EC50: THR-beta, HEK293T reporter assay, read-out: Activity category Assay 2 (EC50, THR-beta agonist)
T1 construct: expressed in transfected cells; host or cells: HEK293T (ATCC CRL-3216)
T1 sequence (P10828 1-461): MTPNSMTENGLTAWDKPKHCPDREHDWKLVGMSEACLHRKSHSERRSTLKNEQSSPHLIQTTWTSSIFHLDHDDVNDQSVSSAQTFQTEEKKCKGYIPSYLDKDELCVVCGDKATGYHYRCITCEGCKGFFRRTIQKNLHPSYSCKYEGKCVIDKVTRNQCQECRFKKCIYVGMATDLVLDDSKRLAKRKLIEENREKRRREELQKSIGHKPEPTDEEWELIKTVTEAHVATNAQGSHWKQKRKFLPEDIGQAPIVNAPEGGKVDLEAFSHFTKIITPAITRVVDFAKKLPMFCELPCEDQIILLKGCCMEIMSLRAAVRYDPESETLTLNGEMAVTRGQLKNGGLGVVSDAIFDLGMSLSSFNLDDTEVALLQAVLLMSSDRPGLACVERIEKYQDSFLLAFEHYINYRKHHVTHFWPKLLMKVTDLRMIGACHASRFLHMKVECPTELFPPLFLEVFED
T1 sequence (P19793 1-462 partner): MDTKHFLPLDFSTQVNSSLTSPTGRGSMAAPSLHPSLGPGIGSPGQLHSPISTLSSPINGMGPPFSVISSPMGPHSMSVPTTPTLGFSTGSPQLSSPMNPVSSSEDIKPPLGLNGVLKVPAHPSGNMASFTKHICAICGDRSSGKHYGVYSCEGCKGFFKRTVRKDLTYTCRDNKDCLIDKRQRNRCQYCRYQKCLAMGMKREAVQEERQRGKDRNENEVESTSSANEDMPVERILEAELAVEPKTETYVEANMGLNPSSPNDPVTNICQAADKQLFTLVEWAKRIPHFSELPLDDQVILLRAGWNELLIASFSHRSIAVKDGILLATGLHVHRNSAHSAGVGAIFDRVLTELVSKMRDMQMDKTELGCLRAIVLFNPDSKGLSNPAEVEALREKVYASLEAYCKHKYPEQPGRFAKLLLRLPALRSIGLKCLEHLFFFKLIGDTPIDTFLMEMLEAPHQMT
In short: (§1)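 Compounds tested as ten-point five-fold dilution series for 18-24 h on transiently transfected HEK293T cells carrying TRE-driven luciferase plus RXR and either THR alpha or beta expression plasmids. Read-out by One-Glo luminescence, expressed as percent agonism relative to negative and positive controls.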

[2] = target: T2, THR alpha (Homo sapiens, UniProt P10827); assay: HEK293T THR alpha/RXR luciferase reporter assay (Assay 2); assay type: cell-based; conditions: Assay 2; for Emax: HEK-293T, Table 5, THRα, read-out: Activity category Assay 2 THRα (Emax); for EC50: Table 4, THR-alpha, read-out: Activity category Assay 2 (EC50, THR-alpha agonist activity)
T2 construct: expressed in transfected cells; host or cells: HEK293T (ATCC CRL-3216)
T2 sequence (P10827 1-410 isoform P10827-2): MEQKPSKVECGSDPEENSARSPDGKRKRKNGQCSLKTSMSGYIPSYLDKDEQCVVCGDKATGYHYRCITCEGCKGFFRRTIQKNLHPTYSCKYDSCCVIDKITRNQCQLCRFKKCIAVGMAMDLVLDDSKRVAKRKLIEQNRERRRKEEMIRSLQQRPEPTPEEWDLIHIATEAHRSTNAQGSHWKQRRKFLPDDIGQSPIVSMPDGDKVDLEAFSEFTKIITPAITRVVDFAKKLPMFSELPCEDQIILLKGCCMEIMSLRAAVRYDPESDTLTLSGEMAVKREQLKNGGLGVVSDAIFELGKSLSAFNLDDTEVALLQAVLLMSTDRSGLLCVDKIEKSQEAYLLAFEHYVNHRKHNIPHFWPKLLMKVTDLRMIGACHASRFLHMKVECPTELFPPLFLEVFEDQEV
T2 sequence (P19793 1-462 partner): T1 sequence (P19793 1-462 partner)
In short: as §1

[3] = target: T3, human thyroid receptor beta ligand-binding domain (LBD) (Homo sapiens, UniProt P10828); assay: TR-FRET thyroid receptor beta coactivator assay (THR biochemical assay, Assay 1); conditions: for EC50: THR-beta, TR-FRET coactivator assay, read-out: Activity category Assay 1 (EC50, THR-beta agonist); for Emax: Table 5, Assay 1, THRβ, read-out: Activity category Assay 1 THRβ (Emax)
T3 construct: purchased Invitrogen
T3 sequence (P10828 217-461 limits assumed): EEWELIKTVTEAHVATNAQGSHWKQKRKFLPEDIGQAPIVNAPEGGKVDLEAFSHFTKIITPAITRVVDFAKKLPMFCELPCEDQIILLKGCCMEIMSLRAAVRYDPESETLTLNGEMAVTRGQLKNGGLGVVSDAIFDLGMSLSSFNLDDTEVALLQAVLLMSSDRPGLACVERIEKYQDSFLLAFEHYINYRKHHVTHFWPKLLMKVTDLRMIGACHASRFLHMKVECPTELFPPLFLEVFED
In short: (§2)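 Agonist-driven coactivator recruitment measured by TR-FRET: terbium anti-GST antibody (2 nM) bound to GST-LBD of TRβ or TRα (1 nM final, stated for β), with fluorescein SRC2-2 peptide at 200 nM. Compounds at 1% DMSO. Read after 1 h, room temperature, protected from light.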

[4] = target: T4, human thyroid receptor alpha ligand-binding domain (LBD) (Homo sapiens, UniProt P10827); assay: TR-FRET thyroid receptor alpha coactivator assay (THR biochemical assay, Assay 1); conditions: for EC50: Table 4, THR-alpha, read-out: Activity category Assay 1 (EC50, THR-alpha agonist activity); for Emax: Table 5, THRα, read-out: Activity category Assay 1 THRα (Emax)
T4 construct: purchased Invitrogen
In short: as §2

Emax [1] [%]	EC50 [1] [nM]	Emax [2] [%]	EC50 [2] [nM]	EC50 [3] [nM]	Emax [3] [%]	EC50 [4] [nM]	Emax [4] [%]	Compound
> 75	< 50	> 75	< 50	< 50	< 50	< 50	< 50	Cc1cc(-n2nc(N)c(=O)[nH]c2=O)cc(C)c1Cc1ccc2[nH]c(=O)n(C(C)C)c2c1 [Compound 149, 6-amino-2-(4-((3-isopropyl-2-oxo-2,3-dihydro-1H-benzo[d]imidazol-5-yl)methyl)-3,5-dimethylphenyl)-1,2,4-triazine-3,5(2H,4H)-dione]
< 50	> 10000	< 50	> 10000	> 25000	< 50	> 25000	< 50	Nc1nn(-c2cc(Cl)c(Oc3n[nH]c(=O)cc3-c3ccccc3)c(Cl)c2)c(=O)[nH]c1=O [Compound 63-A, 6-amino-2-(3,5-dichloro-4-((6-oxo-4-phenyl-1,6-dihydropyridazin-3-yl)oxy)phenyl)-1,2,4-triazine-3,5(2H,4H)-dione]
50 to 75	50 to 250	< 50	> 10000	< 50	< 50	1000 to 25000	< 50	O=c1cc(-c2ccc3c(c2)CCCC3)c(Oc2c(Cl)cc(-n3ncc(=O)[nH]c3=O)cc2Cl)n[nH]1 [Compound 91-A, 2-(3,5-dichloro-4-((6-oxo-4-(5,6,7,8-tetrahydronaphthalen-2-yl)-1,6-dihydropyridazin-3-yl)oxy)phenyl)-1,2,4-triazine-3,5(2H,4H)-dione]
> 75	50 to 250	< 50	1000 to 10000	< 50	< 50	250 to 1000	< 50	Nc1nn(-c2cc(Cl)c(Oc3cc(Cc4ccccc4)c(=O)[nH]n3)c(Cl)c2)c(=O)[nH]c1=O [Compound 65, 6-amino-2-[4-[(5-benzyl-6-hydroxypyridazin-3-yl)oxy]-3,5-dichlorophenyl]-4H-1,2,4-triazine-3,5-dione]
< 50	250 to 1000	< 50	> 10000	50 to 250	< 50	> 25000	< 50	Nc1nn(-c2cc(Cl)c(Oc3cc(C4Cc5ccccc5C4)c(=O)[nH]n3)c(Cl)c2)c(=O)[nH]c1=O [Compound 155]
> 75	< 50	> 75	< 50	< 50	50 to 75	< 50	50 to 75	CC(C)c1cc(Oc2c(Br)cc(-n3nc(N)c(=O)[nH]c3=O)cc2Br)n[nH]c1=O [Compound 81, 6-Amino-2-(3,5-dibromo-4-((5-isopropyl-6-oxo-1,6-dihydropyridazin-3-yl)oxy)phenyl)-1,2,4-triazine-3,5(2H,4H)-dione]
> 75	< 50	> 75	< 50	< 50	> 75	< 50	> 75	CC1(C)C(=O)Nc2ccc(Oc3c(Cl)cc(-n4nc(N)c(=O)[nH]c4=O)cc3Cl)cc21 [Compound 82, 6-amino-2-[3,5-dichloro-4-[(3,3-dimethyl-2-oxo-1H-indol-5-yl)oxy]phenyl]-4H-1,2,4-triazine-3,5-dione]
> 75	< 50	> 75	50 to 250	< 50	50 to 75	50 to 250	50 to 75	CC(C)c1cc(Oc2c(Cl)cc(-n3nc(N)c(=O)[nH]c3=O)cc2Br)n[nH]c1=O [Compound 80, 6-Amino-2-(3-bromo-5-chloro-4-((5-isopropyl-6-oxo-1,6-dihydropyridazin-3-yl)oxy)phenyl)-1,2,4-triazine-3,5(2H,4H)-dione]
> 75	< 50	50 to 75	< 50	< 50	50 to 75	< 50	50 to 75	CC(C)c1c[nH]c2ccc(Oc3c(Cl)cc(-n4nc(N)c(=O)[nH]c4=O)cc3Cl)cc12 [Compound 41, 6-amino-2-[3,5-dichloro-4-[(3-isopropyl-1H-indol-5-yl)oxy]phenyl]-4H-1,2,4-triazine-3,5-dione]
> 75	50 to 250	< 50	250 to 1000	50 to 250	< 50	250 to 1000	< 50	Nc1nn(-c2cc(Cl)c(Oc3cc(C45CC(C4)C5)c(=O)[nH]n3)c(Cl)c2)c(=O)[nH]c1=O [Compound 95]
> 75	50 to 250	> 75	250 to 1000	< 50	< 50	250 to 1000	50 to 75	CC(c1cc(Oc2c(Cl)cc(-n3nc(N)c(=O)[nH]c3=O)cc2Cl)n[nH]c1=O)C1CC(F)(F)C1 (stereo not shown) [Compound 61, 6-amino-2-[3,5-dichloro-4-([5-[1-(3,3-difluorocyclobutyl)ethyl]-6-oxo-1H-pyridazin-3-yl]oxy)phenyl]-4H-1,2,4-tri-azine-3,5-dione]
50 to 75	< 50	50 to 75	< 50	< 50	< 50	< 50	< 50	Cc1cc(-n2nc(N)c(=O)[nH]c2=O)cc(C)c1Cc1ccc2c(c1)C1(CCCC1)C(=O)N2 [Compound 150, 6-Amino-2-(3,5-dimethyl-4-((2′-oxospiro[cyclopentane-1,3′-indolin]-5′-yl)methyl)phenyl)-1,2,4-triazine-3,5(2H,4H)-dione]
< 50	1000 to 10000	< 50	> 10000	250 to 1000	< 50	250 to 1000	< 50	Nc1nn(-c2cc(Cl)c(Oc3cc(Cc4ccc(O)cn4)c(=O)[nH]n3)c(Cl)c2)c(=O)[nH]c1=O [Compound 161, 6-amino-2-[3,5-dichloro-4-([5-[(5-hydroxypyridin-2-yl)methyl]-6-oxo-1H-pyridazin-3-yl]oxy)phenyl]-4H-1,2,4-triazine-3,5-dione]
> 75	< 50	> 75	< 50	< 50	50 to 75	< 50	< 50	CC(C)/C=C1\C(=O)Nc2ccc(Oc3c(Cl)cc(-n4nc(N)c(=O)[nH]c4=O)cc3Cl)cc21 [Compound 147, 6-amino-2-[3,5-dichloro-4-[(3Z)-3-(2-methylpropylidene)-2-oxo-indolin-5-yl]oxy-phenyl]-1,2,4-triazine-3,5-dione]
